# According to PMC11287286 (Proceedings of the National Academy of Sciences of the …, 2024):
# Experiments:
# [1] = tested on: CB2^ECL2/CB1^other; assay: GloSensor cAMP assay, chimeric construct; assay type: cell-based, human; conditions: vs wild-type CB1
# [2] = biological target: CB1 D176^2.63N (Homo sapiens, UniProt P21554, D176N)
# [3] = tested on: CB1^ECL2/CB2^other; assay: GloSensor cAMP assay, chimeric construct; assay type: cell-based, human; conditions: vs wild-type CB2
# [4] = biological target: CB2-M293^7.47T&S47^1.46T (Homo sapiens, UniProt P34972, M293T/S47T); assay: GloSensor cAMP assay, CB2 double mutant; assay type: cell-based
# Sequence of CB2-M293^7.47T&S47^1.46T (P34972 whole entry S47T/M293T): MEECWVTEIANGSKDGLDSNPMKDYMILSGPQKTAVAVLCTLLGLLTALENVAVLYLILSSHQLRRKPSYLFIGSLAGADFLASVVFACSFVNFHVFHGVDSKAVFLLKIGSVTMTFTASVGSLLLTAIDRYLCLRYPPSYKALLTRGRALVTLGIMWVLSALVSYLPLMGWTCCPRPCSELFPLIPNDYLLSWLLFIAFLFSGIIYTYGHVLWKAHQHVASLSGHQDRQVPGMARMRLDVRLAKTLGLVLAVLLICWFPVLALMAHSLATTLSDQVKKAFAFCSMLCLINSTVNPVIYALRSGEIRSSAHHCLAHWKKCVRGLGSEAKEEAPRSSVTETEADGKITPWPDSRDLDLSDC
# Sequence of CB1 D176^2.63N (P21554 whole entry D176N): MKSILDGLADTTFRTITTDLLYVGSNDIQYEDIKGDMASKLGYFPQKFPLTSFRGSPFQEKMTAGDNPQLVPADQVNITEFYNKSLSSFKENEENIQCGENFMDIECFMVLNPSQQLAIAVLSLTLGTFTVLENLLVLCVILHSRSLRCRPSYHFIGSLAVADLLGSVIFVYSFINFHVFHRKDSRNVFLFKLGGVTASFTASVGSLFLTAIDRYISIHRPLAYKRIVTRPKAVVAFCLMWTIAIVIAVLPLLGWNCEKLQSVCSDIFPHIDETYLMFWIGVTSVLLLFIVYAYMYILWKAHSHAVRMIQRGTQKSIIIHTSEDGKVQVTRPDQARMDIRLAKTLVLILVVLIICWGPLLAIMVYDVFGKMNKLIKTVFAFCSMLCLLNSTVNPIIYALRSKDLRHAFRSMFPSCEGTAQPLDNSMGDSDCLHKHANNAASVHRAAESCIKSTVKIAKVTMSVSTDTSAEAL
compound,measurement,setting,value
"CCCCCCC(C)(C)c1ccc([C@@H]2C[C@H](O)CC[C@H]2CCCO)c(O)c1 [CP55,940]",activation of CB1 receptor containing the CB2 ECL2 loop,[1],same potency as wild-type CB1
same,activity vs wild-type CB1,[2],significantly reduces the activity
same,effect of ECL2 replacement on EC50,[3],no effect on the EC50
same,activity vs wild-type CB2,[4],remained essentially unchanged
